Patent US8445539B2, “Alpha-aminoamide derivatives useful in the treatment of psychiatric disorders” (priority 2007, dated 2013)

Target: MAO-B (Rattus norvegicus, UniProt P19643)
Experiment: biochemical
Method: The crude homogenate was centrifuged at 2220 rpm for 10 minutes at +4° C. and the supernatant recovered. The pellet was homogenized and centrifuged again. The two supernatants were pooled and centrifuged at 9250 rpm for 10 minutes. The pellet was resuspended in fresh buffer and centrifuged at 11250 rpm for 10 minutes at +4° C. The resulting pellet was stored at −80° C.
The mitochondrial pellet (500 μg protein) was resuspended in 0.1 M phosphate buffer (pH 7.4). 500 μl of the suspension were added to a 50 μl solution of the test compound or buffer, and incubated for 30 min at 37° C. (preincubation) then the substrate (50 μl) was added. […] (^14C-PEA, 0.5 μM).
The amount of neutral and/or acidic metabolites formed as a result of MAO activity was obtained by measuring the radioactivity of the eluate.
The activity of MAO in the sample, corresponding to a percentage of radioactivity compared with the control activity in the absence of the inhibitor, was expressed as nmoles of substrate transformed/mg protein/min.

Chain of MAO-B (P19643 whole entry): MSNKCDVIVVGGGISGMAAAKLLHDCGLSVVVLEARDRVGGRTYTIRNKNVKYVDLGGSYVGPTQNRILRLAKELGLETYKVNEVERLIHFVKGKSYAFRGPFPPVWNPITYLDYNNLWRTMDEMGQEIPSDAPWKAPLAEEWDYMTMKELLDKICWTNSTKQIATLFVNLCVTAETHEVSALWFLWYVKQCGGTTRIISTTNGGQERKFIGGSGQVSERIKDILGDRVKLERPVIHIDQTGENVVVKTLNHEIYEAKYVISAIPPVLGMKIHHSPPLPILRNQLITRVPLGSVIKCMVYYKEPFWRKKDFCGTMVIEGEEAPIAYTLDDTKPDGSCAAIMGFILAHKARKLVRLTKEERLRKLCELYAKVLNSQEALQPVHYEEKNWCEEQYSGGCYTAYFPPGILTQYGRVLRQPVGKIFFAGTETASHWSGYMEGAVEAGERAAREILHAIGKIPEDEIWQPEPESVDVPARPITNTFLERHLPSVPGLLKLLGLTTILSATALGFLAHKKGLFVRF

## C[C@H](NCc1ccc(OCc2ccccc2F)cc1)C(N)=O [Ralfinamide methanesulfonate, (S)-(+)-2-[4-(2-fluorobenzyloxy)benzylamino]propanamide]
  IC50: 0.132 µM
